Data published in patent US20140235533A1, “DIHYDROFURAN DERIVATIVES AS INSECTICIDAL COMPOUNDS” (SYNGENTA PARTICIPATIONS AG, priority 2011, published 2014).

What was measured:
Type in all cases: in vivo
[1] = tested on: Spodoptera littoralis; assay: Spodoptera littoralis (Egyptian cotton leafworm) cotton leaf disc spray test; conditions: foliar, 72 h, 200 ppm spray on cotton leaf discs, 5 L1 larvae, mortality, feeding behavior, growth regulation 3 days after treatment
From the text: Spodoptera littoralis (Egyptian Cotton Leafworm) Cotton leaf discs were placed on agar in a 24-well microtiter plate and sprayed with test solutions at an application rate of 200 ppm. After drying, the leaf discs were infested with 5 L1 larvae. The samples were checked for mortality, feeding behavior, and growth regulation 3 days after treatment (DAT).

[2] = tested on: Heliothis virescens; assay: Heliothis virescens (tobacco budworm) egg test on artificial diet; conditions: 96 h, 200 ppm (concentration in well 18 ppm), eggs 0-24 h old on artificial diet, egg mortality, larval mortality, growth regulation after 4 days
Method: Heliothis virescens (Tobacco Budworm):
Eggs (0-24 h old) were placed in 24-well microtiter plate on artificial diet and treated with test solutions at an application rate of 200 ppm (concentration in well 18 ppm) by pipetting. After an incubation period of 4 days, samples were checked for egg mortality, larval mortality, and growth regulation. The following compound gave at least 80% control of Heliothis virescens: A1, A2, A03, A05, A06, A07, A08, A09, A10, A11, A12, A13, A14, A15, A16, A17, A18, A19, A20, A21, A22, A25, A26, A27, A31, A32, A34, A37, A39, A40, A42, A44, A45, A46, A47, A48, A49, A50, A51, A52, A53, B1**.

[3] = tested on: Plutella xylostella; assay: Plutella xylostella (diamond back moth) artificial diet MTP test; conditions: 144 h, 200 ppm (concentration in well 18 ppm), L2 larvae, larval mortality and growth regulation after 6 days
Method: (§1) Plutella xylostella (Diamond Back Moth): 24-well microtiter plate (MTP) with artificial diet was treated with test solutions at an application rate of 200 ppm (concentration in well 18 ppm) by pipetting. After drying, the MTPs were infested with L2 larvae (7-12 per well). After an incubation period of 6 days, samples were checked for larval mortality and growth regulation.

[4] = tested on: Diabrotica balteata; assay: Diabrotica balteata (corn root worm) artificial diet MTP test; conditions: 120 h, 200 ppm (concentration in well 18 ppm), L2 larvae, larval mortality and growth regulation after 5 days
Method: as §1, with “Diabrotica balteata (Corn Root Worm): A” for “Plutella xylostella (Diamond Back Moth):”, “(6-10” for “(7-12”, “5” for “6”

[5] = tested on: Tetranychus urticae; assay: Tetranychus urticae (two-spotted spider mite) bean leaf disc spray test; conditions: foliar, 192 h, 200 ppm spray on bean leaf discs, mite populations of mixed ages, egg, larval and adult mortality 8 days later
From the text: Tetranychus urticae (Two-Spotted Spider Mite): Bean leaf discs on agar in 24-well microtiter plates were sprayed with test solutions at an application rate of 200 ppm. After drying, the leaf discs are infested with mite populations of mixed ages. 8 days later, discs are checked for egg mortality, larval mortality, and adult mortality.

Measured: pest or weed control at 200 ppm

CC(C)C(=O)NCc1ccc(C2=COC(c3cc(Cl)cc(Cl)c3)(C(F)(F)F)C2)cc1Cl (stereo not shown) [Compound A46, N-[[2-chloro-4-[2-(3,5-dichlorophenyl)-2-(trifluoromethyl)-3H-furan-4-yl]phenyl]methyl]-2-methyl-propanamide]
≥ 80%: all assays above

CS(=O)(=O)CC(=O)NCc1ccc(C2=COC(c3cc(Cl)cc(Cl)c3)(C(F)(F)F)C2)cc1Cl (stereo not shown) [Compound A51, N-[[2-chloro-4-[2-(3,5-dichlorophenyl)-2-(trifluoromethyl)-3H-furan-4-yl]phenyl]methyl]-2-methylsulfonyl-acetamide]
≥ 80%: all assays above

O=C(NCc1ccc(C2=COC(c3cc(Cl)cc(Cl)c3)(C(F)(F)F)C2)cc1Cl)C1CCCO1 (stereo not shown) [Compound A07, N-[[2-chloro-4-[2-(3,5-dichlorophenyl)-2-(trifluoromethyl)-3H-furan-4-yl]phenyl]methyl]tetrahydrofuran-2-carboxamide]
≥ 80%: all assays above

CC1CCCCC1C(=O)NCc1ccc(C2=COC(c3cc(Cl)cc(Cl)c3)(C(F)(F)F)C2)cc1Cl (stereo not shown) [Compound A11, N-[[2-chloro-4-[2-(3,5-dichlorophenyl)-2-(trifluoromethyl)-3H-furan-4-yl]phenyl]methyl]-2-methyl-cyclohexanecarboxamide]
≥ 80%: [2] | [3] | [5]

O=C(Cc1ccccc1)NCc1ccc(C2=COC(c3cc(Cl)cc(Cl)c3)(C(F)(F)F)C2)cc1Cl (stereo not shown) [Compound A14, N-[[2-chloro-4-[2-(3,5-dichlorophenyl)-2-(trifluoromethyl)-3H-furan-4-yl]phenyl]methyl]-2-phenyl-acetamide]
not listed: [4]
≥ 80%: all other assays above

O=C(Cc1cccs1)NCc1ccc(C2=COC(c3cc(Cl)cc(Cl)c3)(C(F)(F)F)C2)cc1Cl (stereo not shown) [Compound A18, N-[[2-chloro-4-[2-(3,5-dichlorophenyl)-2-(trifluoromethyl)-3H-furan-4-yl]phenyl]methyl]-2-(2-thienyl)acetamide]
not listed: [4]
≥ 80%: all other assays above

C/N=C1/SC(CC(=O)NCc2ccc(C3=COC(c4cc(Cl)cc(Cl)c4)(C(F)(F)F)C3)cc2Cl)C(=O)N1C (stereo not shown) [Compound A15, N-[[2-chloro-4-[2-(3,5-dichlorophenyl)-2-(trifluoromethyl)-3H-furan-4-yl]phenyl]methyl]-2-[(2E)-3-methyl-2-methylimino-4-oxo-thiazolidin-5-yl]acetamide]
≥ 80%: all assays above

O=C(COCc1ccccc1)NCc1ccc(C2=COC(c3cc(Cl)cc(Cl)c3)(C(F)(F)F)C2)cc1Cl (stereo not shown) [Compound A08, 2-benzyloxy-N-[[2-chloro-4-[2-(3,5-dichlorophenyl)-2-(trifluoromethyl)-3H-furan-4-yl]phenyl]methyl]acetamide]
≥ 80%: [1] | [2] | [5]

CCSC(SCC)C(=O)NCc1ccc(C2=COC(c3cc(Cl)cc(Cl)c3)(C(F)(F)F)C2)cc1Cl (stereo not shown) [Compound A53, N-[[2-chloro-4-[2-(3,5-dichlorophenyl)-2-(trifluoromethyl)-3H-furan-4-yl]phenyl]methyl]-2,2-bis(ethylsulfanyl)acetamide]
not listed: [5]
≥ 80%: all other assays above

COc1ccc(C(=O)NCc2ccc(C3=COC(c4cc(Cl)cc(Cl)c4)(C(F)(F)F)C3)cc2Cl)cc1 (stereo not shown) [Compound A26, N-[[2-chloro-4-[2-(3,5-dichlorophenyl)-2-(trifluoromethyl)-3H-furan-4-yl]phenyl]methyl]-4-methoxy-benzamide]
not listed: [5]
≥ 80%: all other assays above

Cc1cccnc1C(=O)NCc1ccc(C2=COC(c3cc(Cl)cc(Cl)c3)(C(F)(F)F)C2)cc1Cl (stereo not shown) [Compound A39, N-[[2-chloro-4-[2-(3,5-dichlorophenyl)-2-(trifluoromethyl)-3H-furan-4-yl]phenyl]methyl]-3-methyl-pyridine-2-carboxamide]
not listed: [5]
≥ 80%: all other assays above

O=C(CC(F)(F)F)NCc1ccc(C2=COC(c3cc(Cl)cc(Cl)c3)(C(F)(F)F)C2)cc1Cl (stereo not shown) [Compound A48, N-[[2-chloro-4-[2-(3,5-dichlorophenyl)-2-(trifluoromethyl)-3H-furan-4-yl]phenyl]methyl]-3,3,3-trifluoro-propanamide]
≥ 80%: all assays above

O=C(COc1ccccc1)NCc1ccc(C2=COC(c3cc(Cl)cc(Cl)c3)(C(F)(F)F)C2)cc1Cl (stereo not shown) [Compound A19, N-[[2-chloro-4-[2-(3,5-dichlorophenyl)-2-(trifluoromethyl)-3H-furan-4-yl]phenyl]methyl]-2-phenoxy-acetamide]
not listed: [1]
≥ 80%: all other assays above

O=C(NCc1ccc(C2=COC(c3cc(Cl)cc(Cl)c3)(C(F)(F)F)C2)cc1Cl)c1cccc(F)c1F (stereo not shown) [Compound A20, N-[[2-chloro-4-[2-(3,5-dichlorophenyl)-2-(trifluoromethyl)-3H-furan-4-yl]phenyl]methyl]-2,3-difluoro-benzamide]
not listed: [5]
≥ 80%: all other assays above

CCC(=O)NCc1ccc(C2=COC(c3cc(Cl)cc(Cl)c3)(C(F)(F)F)C2)cc1Cl (stereo not shown) [Compound A05, N-[[2-chloro-4-[2-(3,5-dichlorophenyl)-2-(trifluoromethyl)-3H-furan-4-yl]phenyl]methyl]propanamide]
≥ 80%: all assays above

CCC(CC)C(=O)NCc1ccc(C2=COC(c3cc(Cl)cc(Cl)c3)(C(F)(F)F)C2)cc1Cl (stereo not shown) [Compound A03, N-[[2-chloro-4-[2-(3,5-dichlorophenyl)-2-(trifluoromethyl)-3H-furan-4-yl]phenyl]methyl]-2-ethyl-butanamide]
≥ 80%: all assays above

Cc1cc2ncc(C(=O)NCc3ccc(C4=COC(c5cc(Cl)cc(Cl)c5)(C(F)(F)F)C4)cc3Cl)c(C)n2n1 (stereo not shown) [Compound A40, N-[[2-chloro-4-[2-(3,5-dichlorophenyl)-2-(trifluoromethyl)-3H-furan-4-yl]phenyl]methyl]-2,7-dimethyl-pyrazolo[1,5-a]pyrimidine-6-carboxamide]
≥ 80%: [2] | [3] | [5]

Cn1nc(C(=O)NCc2ccc(C3=COC(c4cc(Cl)cc(Cl)c4)(C(F)(F)F)C3)cc2Cl)sc1=O (stereo not shown) [Compound A50, N-[[2-chloro-4-[2-(3,5-dichlorophenyl)-2-(trifluoromethyl)-3H-furan-4-yl]phenyl]methyl]-4-methyl-5-oxo-1,3,4-thiadiazole-2-carboxamide]
not listed: [5]
≥ 80%: all other assays above
